Here are results for 5 molecules from patent US8030345B2, “Tricyclic pyrazole derivatives as cannabinoid receptor modulators” (Cadila Healthcare Limited, priority 2004, dated 2011).

The experiment deals with rat. Description: Intake of 5% sucrose solution in rat model. Format: in vivo. To be noted: intake of 5% sucrose solution in animal model (rat). The source says:
Compounds of the present invention in the cAMP accumulation model, antagonizes the WIN-55, 212-2 inhibition of forskolin-induced cAMP accumulation in hCB1-CHO cells [J Pharmacol. Exp Ther., 1998, 284, 291-297]. In a mouse vas deferens preparation, representative compounds cause rightward shift of the WIN-55, 212-2 concentration-response curve (Eur. J. Pharm. 1995, 284, 241-247). Representative compounds of the present invention have shown decrease in sucrose solution intake in rat model (Table 1) [Psychopharmacology, 1997, 132, 104-106].
For the molecule `O=C(NN1CCC(O)CC1)c1nn(-c2ccc(Cl)cc2Cl)c2c1CCOc1cc(Cl)ccc1-2` [Compound 3], the “Reduction in sucrose solution consumption w.r.t. control animals” value is given as −18.9 ± 14.0.
With `O=C(NN1CC2CCCC2C1)c1nn(-c2ccc(Cl)cc2Cl)c2c1CCOc1cc(Cl)ccc1-2` (centres unmarked) [Compound 5, 8-chloro-1-(2,4-dichloro-phenyl)-4,5-dihydro-1H-6-oxa-1,2-diaza-benzo [e] azulene-3-carboxylic acid (hexahydro-cyclopenta[c]pyrrol-2-yl)-amide] the figure was −23.2 ± 11.4.
With `O=C(NN1CCOCC1)c1nn(-c2ccc(Cl)cc2Cl)c2c1CCOc1cc(Cl)ccc1-2` [Compound 6, 8-chloro-1-(2,4-dichloro-phenyl)-4,5-dihydro-1H-6-oxa-1,2-diaza-benzo [e] azulene-3-carboxylic acid morpholine-4-yl-amide] the figure was −24.9 ± 8.9; with `O=C(NN1CCCCC1)c1nn(-c2ccc(Cl)cc2)c2c1CCOc1cc(Cl)ccc1-2` [Compound 8, 8-chloro-1-(4-chloro-phenyl)-4,5-dihydro-1H-6-oxa-1,2-diaza-benzo [e] azulene-3-carboxylic acid piperidin-1-ylamide], −30.4 ± 4.3; with `O=C(NN1CCCCC1)c1nn(-c2ccc(Cl)cc2Cl)c2c1CCCc1sc(Cl)cc1-2` [Compound 16], −13.2 ± 15.7.
